# Where two headings read alike, the source gives them in different places.
# Assays:
# [1] = system: intracellular L. donovani amastigotes; test: Luminescent-based evaluation of intracellular anti-leishmanial activity in THP-1 macrophages; assay type: cell-based, Leishmania donovani
# Method in brief: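 PMA-differentiated THP-1 macrophages (150 nM, 72 h) were infected 18 h with firefly luciferase-expressing L. donovani LV82 promastigotes, then washed. Infected cells were treated with compounds at 0.1-10 μM for 72 h. Surviving intracellular amastigotes were quantified by firefly luciferase luminescence after cell lysis and 10 min substrate incubation at room temperature.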
# THP-1 macrophages = test: Effect of compounds on host cell viability (MTT); assay type: cell-based
# Method in brief: (§1)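 THP-1 cells were differentiated with 150 nM PMA for 72 h, then exposed to compounds at 1–50 μM for 24 h; selected compounds were also run at 1–300 μM for 72 h. MTT at 0.5 mg/mL was added for 2 h at 37 °C, and formazan absorbance was read at 560 nm minus 670 nm.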
# [2] = system: extracellular L. donovani promastigotes; test: Effect of compounds on promastigote viability (resazurin assay); assay type: cell-based, Leishmania donovani; conditions: for MIC50: 72-hour incubation
# Experimental: (§2) The effect of compounds on extracellular promastigotes was evaluated using a resazurin-based assay as described previously. In short, late log phase Leishmania promastigotes were seeded in a 96 well plate at 1 x 10^5 parasites per well and treated with drugs (0.5 – 200 μM) for 72 hours at 25°C. Ten microliters of resazurin (0.02% w/v) were added to the treated parasites to achieve a final concentration of 0.002% w/v and incubated for 24 hours. Viability of the promastigotes was assessed by fluorescence (excitation 544 nm, emission 590 nm, SpectraMax M2, Molecular Devices).
# [3] = system: intracellular L. donovani amastigotes; test: Image-based (Giemsa staining) evaluation of intracellular anti-leishmanial activity in bone marrow derived macrophages; assay type: cell-based, Leishmania donovani
# Experimental: Bone marrow derived macrophages (BMDMs) were isolated from BALB/c mice and cultured as previously described. […] Completely differentiated BMDMs are obtained after 7 days of culture with media change every 2 days. Harvested cells were seeded onto 10 mm glass cover slips at 5 x 10^5 cells/ well of a 24 well plate in DMEM media (without LCM) and allowed to adhere overnight. […] After infection, cells were washed three times with fresh media to remove extracellular promastigotes and treated with compounds for a 72-hour incubation. BMDM cells were then washed with phosphate buffered saline, fixed with ice-cold methanol, and stained with Giemsa (5% v/v in water). The cover slips with stained cells are mounted onto glass slides and imaged on EVOS XL (100X, Thermo Fisher Scientific). Leishmania amastigotes per 100 macrophages were determined in a blinded manner.
# [4] = Effect of compounds on host cell viability (MTT); assay type: cell-based; conditions: human
# Method in brief: as §1
# [5] = system: extracellular L. mexicana promastigotes; test: Effect of compounds on promastigote viability (resazurin assay); assay type: cell-based, Leishmania mexicana; conditions: Leishmania mexicana, 72-hour incubation
# Experimental: as §2
# [6] = THP1 macrophages, luminescence assay, 72 hours of treatment, read-out: Intracellular L. donovani amastigotes Lum IC50
# [7] = THP-1 macrophages, 72-hour incubation, MTT assay, read-out: 72 hr viability of THP-1 macrophages LC50
# [8] = read-out: 24 hr viability of THP-1 macrophages 24h LC50, THP-1 macrophages, 24-hour incubation, MTT assay
# [9] = resazurin assay, read-out: Extracellular L. donovani promastigotes MIC50
# [10] = Giemsa staining, 72-hour incubation, read-out: Intracellular L. donovani amastigotes IC50
# [11] = intracellular Leishmania donovani in THP1 macrophages, luminescence assay (Supplemental Table 2), read-out: Lum IC50
# [12] = read-out: 24h LC50, THP1 macrophages, 24-hour incubation, MTT assay (Supplemental Table 2)
Compound,"IC50 [1, 6] [µM]",CC50 (THP-1 macrophages; [7]) [µM],CC50 (THP-1 macrophages; [8]) [µM],"MIC50 [2, 9] [µM]","IC50 [3, 10] [µM]","IC50 [1, 11] [µM]",CC50 (THP-1 macrophages; [12]) [µM],further results
NCC(=O)Nc1ccc(-n2cc(C(F)(F)F)nc2-c2ccc(-c3ccccc3)cc2)cc1 [Compound 50],1.5,42.7,23.5,14.6,9.1,,,
Oc1ccc(CNC2CCN(c3ccc(-n4nc(C(F)(F)F)cc4C4CCCCC4)cc3)CC2)cc1 [Compound 319],0.8,7.2,6.4,0.8,3.4,,,
CC(C)(C)C#Cc1ccc(-c2cc(C(F)(F)F)nn2-c2ccc(N3CCNCC3)cc2)cc1.Cl [Compound 44],0.9,14.5,7.4,1.9,1,,,
FC(F)(F)c1ccc(-c2nc(C(F)(F)F)cn2-c2ccc(NC3CCNCC3)cc2)cc1 [Compound 408],1.5,25.1,25.4,0.9,2.6,,,
Nc1ccc(CNC2CCN(c3ccc(-n4nc(C(F)(F)F)cc4-c4ccc(-c5ccc(C(F)(F)F)cc5)cc4)cc3)C2)cc1 (stereo not shown) [Compound 23],0.4,6.9,5.8,4.0,0.9,,,
CC(C)(C)OC(=O)NC1CCN(c2ccc(-n3nncc3-c3ccc(C(F)(F)F)cc3)cc2)C1 (stereo not shown) [Compound 133],0.9,33.9,29,13.0,1.7,,,
FC(F)(F)c1ccc(-c2ccc(-c3cc(C(F)(F)F)nn3-c3ccc(NC4CCNC4)cc3)cc2)cc1 (stereo not shown) [Compound 25],0.7,6.3,28.9,2.1,2.5,,,
Oc1ccccc1CN1CCC(Nc2ccc(-n3nc(C(F)(F)F)cc3-c3ccc(-c4ccc(C(F)(F)F)cc4)cc3)cc2)C1 (stereo not shown) [Compound 91],1.4,53.4,> 50,56.3,2.4,,,
N[C@H]1CCN(c2ccc(-n3nc(C(F)(F)F)cc3-c3ccc(-c4ccc(C(F)(F)F)cc4)cc3)cc2)C1 [Compound 130],0.2,6.4,4.2,2.1,1.6,,,
N[C@@H]1CCN(c2ccc(-n3nc(C(F)(F)F)cc3-c3ccc(-c4ccc(C(F)(F)F)cc4)cc3)cc2)C1 [Compound 129],0.1,6.2,6.3,1.7,0.4,,,
N#Cc1cccc(CN2CCC(Nc3ccc(-n4nc(C(F)(F)F)cc4-c4ccc(-c5ccc(C(F)(F)F)cc5)cc4)cc3)C2)c1 (stereo not shown) [Compound 53],,,,,,,,"IC50 ([1]; Leishmania donovani, THP-1, THP1 macrophages, luminescence assay, 72 hours of treatment, read-out: Intracellular L. donovani amastigotes Lum IC50): 0.4 µM; Selectivity 24h LC50 / Lum IC50 ([1]; host-directed effect vs cytotoxicity): >112.6; CC50 at 24 h [4]: > 50 µM; CC50 at 72 h [4]: > 300 µM; CC50 (THP-1 macrophages): > 300 µM; reduction in macrophage viability (THP-1 macrophages; 72hr incubation up to 300μM): Neither compound had any reduction; MIC50 ([2]; Leishmania donovani, resazurin assay (Table 3), read-out: L. donovani Extracellular promastigotes MIC50): > 200 µM; MIC50 ([2]; Leishmania donovani, resazurin assay, read-out: Extracellular L. donovani promastigotes MIC50): > 200 µM; direct effect on extracellular promastigote viability ([2]; resazurin assay, strain not named for 53, L. donovani for 197): no direct effects; IC50 ([3]; Leishmania donovani, Macrophage, 72 h, Giemsa staining, 72-hour incubation, read-out: Intracellular L. donovani amastigotes IC50): 1.1 µM; IC50 ([3]; Leishmania donovani, Macrophage, Giemsa staining (Table 3), read-out: L. donovani Intracellular amastigotes IC50): < 2 µM; MIC50 [5]: > 200 µM"
O=C(Nc1ccc(-n2cc(C(F)(F)F)nc2-c2ccc(-c3ccccc3)cc2)cc1)C1CCN(Cc2ccccc2)C1 (stereo not shown) [Compound 86],1.4,8.2,21.9,3.2,0.6,,,
FC(F)(F)C#Cc1ccc(-c2cc(C(F)(F)F)nn2-c2ccc(N3CCNCC3)cc2)cc1 [Compound 93],,,,,,> 10,40,
CC(C)C#Cc1ccc(-c2cc(C(F)(F)F)nn2-c2ccc(N3CCC(N)C3)cc2)cc1 (stereo not shown) [Compound 98],,,,,,> 10,19.5,
NCCOCCN1CCC(Oc2ccc(-n3nc(C(F)(F)F)cc3C3CCCCC3)cc2)CC1 [Compound 423],,,,,,6,3.4,
FC(F)(F)c1ccc(-c2ccc(-c3cc(C(F)(F)F)nn3-c3ccc(NC4CC(Cc5ccc(Cl)cc5)C4)cc3)cc2)cc1 (stereo not shown) [Compound 66],,,,,,> 10,> 50,
Oc1ccc(CN2CCC(Nc3ccc(-n4nc(C(F)(F)F)cc4C4CCCCC4)cc3)CC2)cc1 [Compound 392],,,,,,4.7,25.9,

Compound,"IC50 [1, 6] [µM]",CC50 (THP-1 macrophages; [7]) [µM],CC50 (THP-1 macrophages; [8]) [µM],"MIC50 [2, 9] [µM]","IC50 [3, 10] [µM]","IC50 [1, 11] [µM]",CC50 (THP-1 macrophages; [12]) [µM],further results
FC(F)(F)c1cc(C2CCCCC2)nn1-c1ccc(Br)cc1 [Compound 216],,,,,,> 10,> 50,
NC1CCN(c2ccc(-n3nc(C(F)(F)F)cc3C3CCCCC3)cc2)CC1 [Compound 324],,,,,,1.9,27.5,
O=C(CCCCBr)N1CCC(Nc2ccc(-n3nc(C(F)(F)F)cc3-c3ccc(-c4ccc(C(F)(F)F)cc4)cc3)cc2)CC1 [Compound 117],,,,,,6.1,> 50,
CC(C)(C)OC(=O)NCC(=O)Nc1ccc(-n2cnc3ccccc32)cc1 [Compound 148],,,,,,> 10,> 50,
Oc1ccc(CN2CCC(Nc3ccc(-n4nc(C(F)(F)F)cc4C4CCCCC4)cc3)C2)cc1 (stereo not shown) [Compound 368],,,,,,1.6,12.1,
FC(F)(F)c1ccc(-c2ccc(-c3cc(C(F)(F)F)nn3-c3ccc(NC4CNC4)cc3)cc2)cc1 [Compound 3],,,,,,1.8,11,
FC(F)(F)c1cc(C2CCCCC2)n(-c2ccc(NC3CCNCC3)cc2)n1 [Compound 339],,,,,,1.7,18.2,
FC(F)(F)c1cc(C2CCCCC2)n(-c2ccc(N3CCC(NCc4ccccc4)CC3)cc2)n1 [Compound 336],,,,,,2.4,15.9,
CC(C)(C)OC(=O)NC1CCN(c2ccc(-n3cc(C(F)(F)F)nc3-c3ccc(-c4ccccc4)cc3)cc2)C1 (stereo not shown) [Compound 82],,,,,,> 10,> 50,
COc1ccc(-c2cc(C(F)(F)F)nn2-c2ccc(Br)cc2)cc1OC [Compound 251],,,,,,> 10,> 50,
CC(C)(C)OC(=O)N1CCC(Oc2ccc(-n3nc(C(F)(F)F)cc3-c3ccc(-c4ccc(C(F)(F)F)cc4)cc3)cc2)C1 (stereo not shown) [Compound 142],,,,,,> 10,> 50,
CC(C)C#Cc1ccc(-c2cc(C(F)(F)F)nn2-c2ccc(N3CCC(NC(=O)OC(C)(C)C)C3)cc2)cc1 (stereo not shown) [Compound 97],,,,,,> 10,> 50,
CN(C)c1ccc(-c2cc(C(F)(F)F)nn2-c2ccc(N3CCC(NC(=O)OC(C)(C)C)C3)cc2)cc1 (stereo not shown) [Compound 217],,,,,,> 10,> 50,
FC(F)(F)Oc1ccc(-n2cc(C(F)(F)F)nc2-c2ccc(-c3ccccc3)cc2)cc1 [Compound 183],,,,,,> 10,> 50,
FC(F)(F)c1ccc(-c2ccc(-c3cc(C(F)(F)F)nn3-c3ccc(NC4CCN(Cc5ccccc5)CC4)cc3)cc2)cc1 [Compound 115],,,,,,7.4,13.2,
NCC(=O)Nc1ccc(-c2cc(C(F)(F)F)nn2-c2ccc(-c3ccc(C(F)(F)F)cc3)cc2)cc1 [Compound 155],,,,,,4,6.1,
